Values of other authors in patent US20100016582A1 (Wyeth, priority 2008, published 2010).
Blank lines part the entries; values can stand above or below the molecule they belong to.

Assays:
[1] = drug formulations; acetic acid
[2] = contact with a solvent or solvent mixture (e.g., ethyl acetate and ethanol)
[3] = tested on: MCF-7 cell line (human breast cancer cell line)
uterine response = settings: preclinical models of uterine stimulation
[4] = tested on: ovariectomized rat model of osteopenia

- conversion of Form A to Form B [2]: can easily convert to Form B
Compound: Cc1c(-c2ccc(O)cc2)n(Cc2ccc(OCCN3CCCCCC3)cc2)c2ccc(O)cc12 [Form A, 1-[4-(2-azepan-1-yl-ethoxy)-benzyl]-2-(4-hydroxy-phenyl)-3-methyl-1H-indol-5-ol acetic acid]
- bioavailability [1]: better bioavailability in some drug formulations

Compound: Cc1c(-c2ccc(O)cc2)n(Cc2ccc(OCCN3CCCCCC3)cc2)c2ccc(O)cc12 [bazedoxifene acetate, 1-[4-(2-azepan-1-yl-ethoxy)-benzyl]-2-(4-hydroxy-phenyl)-3-methyl-1H-indol-5-ol acetic acid]
- estrogen antagonist behaviour [3]: behaves as an estrogen antagonist
- stimulation of uterine response (uterine response): little or no stimulation of uterine response
- prevention of bone loss [4]: estrogen agonist-like effect in preventing bone loss
- reduction of cholesterol [4]: reducing cholesterol
